Experimental data from ChEMBL document CHEMBL1201862, “PubChem BioAssay data set” (2004).
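Five concentrations, 48 hours, 96-well plates. GI50: concentration for 50% inhibition of growth.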 Calls of active or inactive are those of the source. No stated cut-off is given here; in the data, active = GI50 up to about 1.1 µM and inactive = higher.

Tests used:
Experiment in all cases: NCI-60 cell line screen, 48 h
[1] = tested on: NCI-H226
[2] = tested on: NCI-H23
[3] = tested on: TK-10
[4] = tested on: MDA-MB-435
[5] = tested on: HCC 2998
[6] = tested on: SF-268
[7] = tested on: RPMI-8226
[8] = tested on: UACC-257
[9] = tested on: OVCAR-4
[10] = tested on: A549
[11] = tested on: IGROV-1
[12] = tested on: HCT-15
[13] = tested on: T47D
[14] = tested on: UACC-62
[15] = tested on: SK-MEL-28
[16] = tested on: Hs-578T
[17] = tested on: SNB-75
[18] = tested on: MDA-N
[19] = tested on: OVCAR-8
[20] = tested on: U-251
[21] = tested on: LOX IMVI
[22] = tested on: 786-0
[23] = tested on: Malme-3M
[24] = tested on: HCT-116
[25] = tested on: UO-31
[26] = tested on: A498
[27] = tested on: ACHN
[28] = tested on: DU-145
[29] = tested on: COLO 205
[30] = tested on: BT-549
[31] = tested on: MDA-MB-231
[32] = tested on: SW-620
[33] = tested on: SN12C
[34] = tested on: HOP-92
[35] = tested on: SK-MEL-2
[36] = tested on: HT-29
[37] = tested on: KM12
[38] = tested on: CAKI-1
[39] = tested on: NCI-H522
[40] = tested on: NCI/ADR-RES
[41] = tested on: SNB-19
[42] = tested on: SK-MEL-5
[43] = tested on: NCI-H460
[44] = tested on: K562
[45] = tested on: PC-3
[46] = tested on: SK-OV-3
[47] = tested on: RXF 393
[48] = tested on: CCRF-CEM
[49] = tested on: OVCAR-3
[50] = tested on: EKVX
[51] = tested on: OVCAR-5
[52] = tested on: MOLT-4
[53] = tested on: SF-295
[54] = tested on: M14
[55] = tested on: HOP-62

Cc1ccc(-c2c(C#N)c(N)nc3c2CCS(=O)(=O)c2ccccc2-3)cc1 was tested, and the GI50 [1] was 66.1 µM (inactive), the GI50 [2] was > 100 µM (inactive) and the GI50 [3] was 59.7 µM (inactive). The GI50 [4] was > 100 µM (inactive), the GI50 [5] was > 100 µM (inactive) and the GI50 [6] was 83.4 µM (inactive). The GI50 [7] was > 100 µM (inactive), the GI50 [8] was 65 µM (inactive) and the GI50 [9] was 40.6 µM (inactive). The GI50 [10] was > 100 µM (inactive), the GI50 [11] was 34.1 µM (inactive) and the GI50 [12] was over 100 µM. For the same molecule, the GI50 [13] was 55.5 µM (inactive), the GI50 [14] was 57.3 µM (inactive) and the GI50 [15] was 72.4 µM (inactive). The GI50 [16] was 58.1 µM (inactive), the GI50 [17] was 20.6 µM (inactive) and the GI50 [18] was > 100 µM (inactive). For the same molecule, the GI50 [19] was 41 µM (inactive), the GI50 [20] was 68.2 µM (inactive) and the GI50 [21] was > 100 µM (inactive). For the same molecule, the GI50 [22] was 44.2 µM (inactive), the GI50 [23] was 39.4 µM (inactive) and the GI50 [24] was > 100 µM (inactive). For the same molecule, the GI50 [25] was 90.8 µM (inactive), the GI50 [26] was > 100 µM (inactive) and the GI50 [27] was 52.4 µM (inactive). The GI50 [28] was 74.6 µM (inactive), the GI50 [29] was > 100 µM (inactive) and the GI50 [30] was 95.3 µM (inactive). The GI50 [31] was > 100 µM (inactive), the GI50 [32] was > 100 µM (inactive) and the GI50 [33] was 81.8 µM (inactive). The GI50 [34] was 34.1 µM (inactive), the GI50 [35] was 49.1 µM (inactive) and the GI50 [36] was > 100 µM (inactive). The GI50 [37] was > 100 µM (inactive), the GI50 [38] was > 100 µM (inactive) and the GI50 [39] was > 100 µM (inactive). For the same molecule, the GI50 [40] was 85.9 µM (inactive), the GI50 [41] was 50.7 µM (inactive) and the GI50 [42] was 66.7 µM (inactive). The GI50 [43] was > 100 µM (inactive), the GI50 [44] was > 100 µM (inactive) and the GI50 [45] was 78.9 µM (inactive).
With Cc1ccc(/N=N/c2c(O)c(C(=O)Nc3ccccc3)cc3ccccc23)c([N+](=O)[O-])c1 the GI50 [2] was > 100 µM (inactive), the GI50 [46] was > 100 µM (inactive) and the GI50 [3] was > 100 µM (inactive). For the same molecule, the GI50 [4] was > 100 µM (inactive), the GI50 [6] was > 100 µM (inactive) and the GI50 [7] was > 100 µM (inactive). For the same molecule, the GI50 [8] was > 100 µM (inactive), the GI50 [9] was > 100 µM (inactive) and the GI50 [10] was > 100 µM (inactive). For the same molecule, the GI50 [11] was > 100 µM (inactive), the GI50 [12] was over 100 µM and the GI50 [47] was > 100 µM (inactive). The GI50 [48] was > 100 µM (inactive), the GI50 [13] was > 100 µM (inactive) and the GI50 [14] was > 100 µM (inactive). For the same molecule, the GI50 [15] was > 100 µM (inactive), the GI50 [16] was > 100 µM (inactive) and the GI50 [49] was > 100 µM (inactive). The GI50 [17] was > 100 µM (inactive), the GI50 [18] was > 100 µM (inactive) and the GI50 [19] was > 100 µM (inactive). For the same molecule, the GI50 [20] was > 100 µM (inactive), the GI50 [21] was > 100 µM (inactive) and the GI50 [22] was > 100 µM (inactive). For the same molecule, the GI50 [50] was > 100 µM (inactive), the GI50 [23] was > 100 µM (inactive) and the GI50 [24] was > 100 µM (inactive). For the same molecule, the GI50 [25] was > 100 µM (inactive), the GI50 [51] was > 100 µM (inactive) and the GI50 [26] was > 100 µM (inactive). For the same molecule, the GI50 [27] was > 100 µM (inactive), the GI50 [28] was > 100 µM (inactive) and the GI50 [29] was > 100 µM (inactive). For the same molecule, the GI50 [30] was > 100 µM (inactive), the GI50 [31] was > 100 µM (inactive) and the GI50 [32] was > 100 µM (inactive). The GI50 [33] was > 100 µM (inactive), the GI50 [34] was > 100 µM (inactive) and the GI50 [35] was > 100 µM (inactive). For the same molecule, the GI50 [36] was > 100 µM (inactive), the GI50 [52] was > 100 µM (inactive) and the GI50 [37] was > 100 µM (inactive). The GI50 [38] was > 100 µM (inactive), the GI50 [53] was 70.8 µM (inactive) and the GI50 [39] was > 100 µM (inactive). For the same molecule, the GI50 [40] was > 100 µM (inactive), the GI50 [41] was > 100 µM (inactive) and the GI50 [42] was > 100 µM (inactive). For the same molecule, the GI50 [54] was > 100 µM (inactive), the GI50 [44] was > 100 µM (inactive) and the GI50 [55] was > 100 µM (inactive). The GI50 [45] was > 100 µM (inactive).
